What was measured:
[1] = biological target: T1, beta-catenin-B-cell lymphoma 9 protein complex (Homo sapiens, UniProt P35222); assay: Inhibition of N-terminal His6-tagged full-length recombinant beta-catenin (1 to 781 residues) (unknown origin) expressed in Escherichia coli BL21 DE3/N-terminal FAM tagged BCL9 HD2(350 to 375 residues) (unknown origin) protein-protein interaction assessed as inhibition constant incubated for 3 hrs by competitive fluorescence polarization assay
T1 sequence (P35222 whole entry): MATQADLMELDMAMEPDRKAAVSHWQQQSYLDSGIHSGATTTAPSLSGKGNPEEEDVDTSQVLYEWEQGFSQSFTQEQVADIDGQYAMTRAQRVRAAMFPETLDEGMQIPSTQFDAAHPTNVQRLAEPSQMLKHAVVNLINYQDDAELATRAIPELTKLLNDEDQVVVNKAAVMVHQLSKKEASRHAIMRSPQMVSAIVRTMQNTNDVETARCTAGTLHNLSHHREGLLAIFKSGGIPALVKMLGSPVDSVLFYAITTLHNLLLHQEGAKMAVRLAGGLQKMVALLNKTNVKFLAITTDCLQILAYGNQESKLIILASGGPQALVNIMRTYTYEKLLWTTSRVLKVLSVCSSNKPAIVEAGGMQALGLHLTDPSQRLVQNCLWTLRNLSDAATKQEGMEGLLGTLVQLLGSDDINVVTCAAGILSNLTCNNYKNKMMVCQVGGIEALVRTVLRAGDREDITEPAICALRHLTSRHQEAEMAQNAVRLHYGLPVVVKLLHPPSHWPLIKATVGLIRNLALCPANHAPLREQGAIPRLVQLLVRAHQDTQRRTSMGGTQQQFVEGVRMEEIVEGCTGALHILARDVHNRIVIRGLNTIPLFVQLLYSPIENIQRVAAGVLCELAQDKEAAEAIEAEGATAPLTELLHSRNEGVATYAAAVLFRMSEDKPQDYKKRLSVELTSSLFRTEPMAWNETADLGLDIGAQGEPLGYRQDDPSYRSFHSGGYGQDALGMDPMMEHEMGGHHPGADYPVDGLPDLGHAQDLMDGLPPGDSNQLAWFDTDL
T1 sequence (O00512 whole entry): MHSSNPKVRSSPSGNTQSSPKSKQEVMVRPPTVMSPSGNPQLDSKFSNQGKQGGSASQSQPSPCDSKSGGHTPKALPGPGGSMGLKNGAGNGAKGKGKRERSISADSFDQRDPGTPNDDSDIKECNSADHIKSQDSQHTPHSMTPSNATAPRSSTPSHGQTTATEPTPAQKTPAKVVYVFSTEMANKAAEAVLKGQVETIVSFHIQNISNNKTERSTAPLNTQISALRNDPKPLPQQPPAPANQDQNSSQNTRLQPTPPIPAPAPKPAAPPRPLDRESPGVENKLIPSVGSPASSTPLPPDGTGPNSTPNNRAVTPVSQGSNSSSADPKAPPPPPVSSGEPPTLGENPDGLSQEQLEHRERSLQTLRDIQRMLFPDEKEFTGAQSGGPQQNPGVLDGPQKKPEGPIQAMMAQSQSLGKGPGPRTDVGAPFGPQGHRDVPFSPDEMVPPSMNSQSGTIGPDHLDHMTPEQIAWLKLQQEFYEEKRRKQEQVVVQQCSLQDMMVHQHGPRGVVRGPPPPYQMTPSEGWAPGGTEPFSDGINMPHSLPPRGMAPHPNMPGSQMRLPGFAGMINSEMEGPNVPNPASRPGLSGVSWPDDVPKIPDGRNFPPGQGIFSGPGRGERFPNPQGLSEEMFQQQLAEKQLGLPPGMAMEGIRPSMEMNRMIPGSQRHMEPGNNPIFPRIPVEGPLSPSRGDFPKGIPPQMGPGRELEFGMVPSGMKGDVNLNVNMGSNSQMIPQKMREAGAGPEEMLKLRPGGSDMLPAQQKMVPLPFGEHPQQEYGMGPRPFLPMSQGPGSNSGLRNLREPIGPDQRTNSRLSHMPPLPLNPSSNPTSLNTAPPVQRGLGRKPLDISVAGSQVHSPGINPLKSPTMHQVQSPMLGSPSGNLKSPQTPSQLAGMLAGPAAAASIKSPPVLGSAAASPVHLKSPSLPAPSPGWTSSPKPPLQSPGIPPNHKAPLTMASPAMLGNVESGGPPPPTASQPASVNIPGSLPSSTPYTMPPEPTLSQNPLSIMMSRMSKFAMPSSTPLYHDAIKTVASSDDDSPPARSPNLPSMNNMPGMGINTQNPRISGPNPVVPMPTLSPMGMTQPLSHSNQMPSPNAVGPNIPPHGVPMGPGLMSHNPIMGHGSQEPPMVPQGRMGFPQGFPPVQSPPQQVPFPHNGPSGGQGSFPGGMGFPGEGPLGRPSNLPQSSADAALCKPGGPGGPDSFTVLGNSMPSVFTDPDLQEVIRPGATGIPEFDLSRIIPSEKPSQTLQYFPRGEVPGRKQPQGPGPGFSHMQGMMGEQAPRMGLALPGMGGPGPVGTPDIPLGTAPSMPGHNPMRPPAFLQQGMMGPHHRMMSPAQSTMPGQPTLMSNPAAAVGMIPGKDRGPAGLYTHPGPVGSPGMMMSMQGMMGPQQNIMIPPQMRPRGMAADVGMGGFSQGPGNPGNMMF

[2] = biological target: T1, beta-catenin-B-cell lymphoma 9 protein complex; assay: Inhibition of beta-catenin/BCL9 protein-protein interaction in Wnt-dependent human HCT-116 cells assessed as reduction in Axin2 expression level by qRT-PCR assay; assay type: cell-based
[3] = Microsomal stability in mouse liver microsomes assessed as half life at […] and measured upto 60 mins by LC-MS/MS analysis; assay type: ADME, Microsome
[4] = Microsomal stability in mouse liver microsomes assessed as intrinsic clearance at […] and measured upto 60 mins by LC-MS/MS analysis; assay type: ADME, Microsome; conditions: read-out: CLH
[5] = Microsomal stability in human liver microsomes assessed as half life at […] and measured upto 60 mins by LC-MS/MS analysis; assay type: ADME, Microsome
[6] = Microsomal stability in human liver microsomes assessed as intrinsic clearance at […] and measured upto 60 mins by LC-MS/MS analysis; assay type: ADME, Microsome; conditions: read-out: CLH
[7] = biological target: T1, beta-catenin-B-cell lymphoma 9 protein complex; assay: Inhibition of beta-catenin (unknown origin)/human BCL9 (350 to 375 residues) protein-protein interaction assessed as inhibition constant by AlphaScreen assay; assay type: protein-complex assay
[8] = biological target: T1, beta-catenin-B-cell lymphoma 9 protein complex; assay: Inhibition of full-length recombinant beta-catenin (1 to 781 residues) (unknown origin)/N-terminal biotinylated BCL9-HD2 (unknown origin) protein-protein interaction assessed as inhibition constant incubated for 90 mins by AlphaScreen assay; assay type: protein-complex assay
[9] = biological target: T1, beta-catenin-B-cell lymphoma 9 protein complex; assay: Inhibition of FLAG tagged human beta-catenin/FLAG-tagged human BCL9 HD2 (343 to 396 residues) expressed in Escherichia coli BL21 protein-protein interaction assessed as inhibition constant by ELISA

| Structure (SMILES) | IC50 [1] [µM] | IC50 [2] [µM] | also measured |
| --- | --- | --- | --- |
| CC(C)(Oc1cccc(C2CCCN(C(=O)OCc3ccc(C(C)(C)C)cc3)C2)c1)C(=O)O (stereo not given) | > 10 | – | – |
| CC(C)c1ccc(-c2cccc(C(=O)N3CCCC(c4cccc(OC(C)(C)C(=O)O)c4)C3)c2)cc1 (stereo not given) | > 10 | – | – |
| CC(C)(Oc1cccc(C2CCCN(C(=O)OCc3ccc4ccccc4c3)C2)c1)C(=O)O (stereo not given) | > 10 | – | – |
| CC(C)c1ccc(CNC(=O)N2CCCC(c3cccc(OC(C)(C)C(=O)O)c3)C2)cc1 (stereo not given) | 8.62 | – | – |
| CC(C)(Oc1cccc(C2CCCN(C(=O)OCc3ccc4ncccc4c3)C2)c1)C(=O)O (stereo not given) | > 10 | – | – |
| CC(C)(Oc1cccc(C2CCCN(C(=O)OCc3ccc(F)cc3F)C2)c1)C(=O)O (stereo not given) | 5.19 | – | – |
| O=C(Nc1ccc(O[C@@H]2CCNC2)c(-c2ccc(F)cc2)c1)c1ccc(O[C@H]2CCNC2)c(-c2ccc(F)c(F)c2)c1 | – | – | Ki [7]: 2.1 µM |
| CC(C)c1ccc(-c2cccc(S(=O)(=O)N3CCC[C@@H](c4cccc(OC(C)(C)C(=O)NS(=O)(=O)c5ccc(C(F)(F)F)cc5)c4)C3)c2)cc1 | – | – | half-life [3]: 14.8 min; microsomal CLint [4]: 93.4 µL/min/mg; half-life [5]: 69.3 min; microsomal CLint [6]: 20 µL/min/mg |
| CC1CCCN(CCCNC(=O)C2=Cc3sc4c(c3CS2)CCCC4)C1 (stereo not given) | – | – | Ki [8]: 9 µM |
| CC(C)c1ccc(-c2cccc(S(=O)(=O)N3CCC[C@H](c4cccc(OC(C)(C)C(=O)NS(=O)(=O)c5ccc(C(F)(F)F)cc5)c4)C3)c2)cc1 | – | – | half-life [3]: 37.7 min; microsomal CLint [4]: 36.8 µL/min/mg; half-life [5]: 21.8 min; microsomal CLint [6]: 63.6 µL/min/mg |
| CC(C)c1ccc(/C=C/C(=O)N2CCCC(c3cccc(OC(C)(C)C(=O)O)c3)C2)cc1 (stereo not given) | 5.39 | – | – |
| COC(=O)C(C)(C)Oc1cccc(C2CCCN(C(=O)OCc3ccc(C(C)C)cc3)C2)c1 (stereo not given) | 5.21 | – | – |
| CC(C)(Oc1cccc(C2CCCN(S(=O)(=O)c3cccc(C4CCCCC4)c3)C2)c1)C(=O)O (stereo not given) | > 10 | – | – |
| CC(C)(Oc1cccc(C2CCCN(S(=O)(=O)c3cccc(-c4ccc(F)c(F)c4)c3)C2)c1)C(=O)O (stereo not given) | > 10 | – | – |
| COc1ccc(COC(=O)N2CCCC(c3cccc(OC(C)(C)C(=O)O)c3)C2)cc1 (stereo not given) | 5.27 | – | – |
| COc1ccc(COC(=O)N2CCCC(c3cccc(OC(C)(C)C(=O)O)c3)C2)cc1OC (stereo not given) | 6.8 | – | – |
| CC(C)(Oc1cccc(C2CCCN(S(=O)(=O)c3cccc(-c4ccccc4)c3)C2)c1)C(=O)O (stereo not given) | 8.3 | – | – |
| CC(C)(Oc1cccc(C2CCCN(S(=O)(=O)c3cccc(-c4cccs4)c3)C2)c1)C(=O)O (stereo not given) | > 10 | – | – |
| CC(C)c1cc2c(c(O)c1O)[C@@]1(C(=O)O)CCCC(C)(C)[C@@H]1CC2 [CARNOSIC ACID] | – | – | Ki [9]: 3.3 µM |
| Cc1ccc(COC(=O)N2CCCC(c3cccc(OC(C)(C)C(=O)O)c3)C2)cc1 (stereo not given) | 6.7 | – | – |
| CC(C)c1ccc(-c2cccc(S(=O)(=O)N3CCCC(c4cccc(OC(C)(C)C(=O)NS(=O)(=O)c5cccs5)c4)C3)c2)cc1 (stereo not given) | – | – | half-life [3]: 5.75 min; microsomal CLint [4]: 241 µL/min/mg; half-life [5]: 6.17 min; microsomal CLint [6]: 225 µL/min/mg |

Now from value to compound, other results behind:

| IC50 [1] [µM] | IC50 [2] [µM] | Structure (SMILES) | also measured |
| --- | --- | --- | --- |
| 3.9 | > 10 | CC(C)(Oc1cccc(C2CCCN(C(=O)OCC3CCCCC3)C2)c1)C(=O)O (stereo not given) | – |
| 4.32 | – | CC(C)(Oc1cccc(C2CCCN(C(=O)OCc3ccc(F)c(F)c3)C2)c1)C(=O)O (stereo not given) | – |
| 4.27 | – | CC(C)c1cccc(-c2cccc(S(=O)(=O)N3CCCC(c4cccc(OC(C)(C)C(=O)O)c4)C3)c2)c1 (stereo not given) | – |
| 0.89 | 2.93 | CC(=O)Nc1ccc(S(=O)(=O)NC(=O)C(C)(C)Oc2cccc(C3CCCN(S(=O)(=O)c4cccc(-c5ccc(C(C)C)cc5)c4)C3)c2)cc1 (stereo not given) | – |
| 4.63 | – | Cc1ccc(-c2cccc(S(=O)(=O)N3CCCC(c4cccc(OC(C)(C)C(=O)O)c4)C3)c2)cc1C (stereo not given) | – |
| 1.18 | 1.1 | CC(C)c1ccc(-c2cccc(S(=O)(=O)N3CCCC(c4cccc(OC(C)(C)C(=O)NS(=O)(=O)c5ccccc5)c4)C3)c2)cc1 (stereo not given) | half-life [3]: 19.8 min; microsomal CLint [4]: 70 µL/min/mg; half-life [5]: 8.67 min; microsomal CLint [6]: 160 µL/min/mg |
| 3.76 | 10 | CC(C)c1ccc(-c2cccc(S(=O)(=O)N3CCCC(c4cccc(OC(C)(C)C(=O)NCc5ccccc5)c4)C3)c2)cc1 (stereo not given) | – |
| 1 | 1.19 | CC(C)c1ccc(-c2cccc(S(=O)(=O)N3CCCC(c4cccc(OC(C)(C)C(=O)NS(=O)(=O)c5ccc(OC(F)(F)F)cc5)c4)C3)c2)cc1 (stereo not given) | – |
| 1.27 | 1.13 | CC(C)c1ccc(-c2cccc(S(=O)(=O)N3CCCC(c4cccc(OC(C)(C)C(=O)NS(=O)(=O)c5cccc(C#N)c5)c4)C3)c2)cc1 (stereo not given) | – |
| 2.47 | 1.33 | CC(C)c1ccc(-c2cccc(S(=O)(=O)N3CCCC(c4cccc(OC(C)(C)C(=O)NS(=O)(=O)c5cccc(C(F)(F)F)c5)c4)C3)c2)cc1 (stereo not given) | – |
| 1.86 | 1.49 | CC(C)c1ccc(-c2cccc(S(=O)(=O)N3CCCC(c4cccc(OC(C)(C)C(=O)NS(=O)(=O)c5ccc(C#N)cc5)c4)C3)c2)cc1 (stereo not given) | – |
| 4.86 | – | CC(C)c1ccc(COC(=O)N2CCC(c3cccc(OC(C)(C)C(=O)O)c3)CC2)cc1 | – |
| 4.47 | – | COc1ccc(S(=O)(=O)NC(=O)C(C)(C)Oc2cccc(C3CCCN(S(=O)(=O)c4cccc(-c5ccc(C(C)C)cc5)c4)C3)c2)cc1 (stereo not given) | – |
| 4 | – | CC(C)(Oc1cccc(C2CCCN(S(=O)(=O)c3cccc(-c4ccsc4)c3)C2)c1)C(=O)O (stereo not given) | – |
| 1.58 | 2.26 | CC(C)c1ccc(-c2cccc(S(=O)(=O)N3CCCC(c4cccc(OC(C)(C)C(=O)O)c4)C3)c2)cc1 (stereo not given) | – |
| 1.18 | 1.36 | CC(C)c1ccc(-c2cccc(S(=O)(=O)N3CCCC(c4cccc(OC(C)(C)C(=O)NS(=O)(=O)c5ccc(C(F)(F)F)cc5Cl)c4)C3)c2)cc1 (stereo not given) | – |
| 3.14 | 1.31 | CC(C)(Oc1cccc(C2CCCN(S(=O)(=O)c3cccc(-c4ccc(C(C)(C)C)cc4)c3)C2)c1)C(=O)O (stereo not given) | – |
| 4.2 | – | Cc1ccc(COC(=O)N2CCCC(c3cccc(OC(C)(C)C(=O)O)c3)C2)cc1C (stereo not given) | – |
| 3.27 | 3.58 | CC(C)(Oc1cccc(C2CCCN(S(=O)(=O)c3cccc(-c4ccc5ccsc5c4)c3)C2)c1)C(=O)O (stereo not given) | – |
